Experimental data reported in patent US11912668B2, “GCN2 and perk kinase inhibitors and methods of use thereof” (Deciphera Pharmaceuticals, LLC, priority 2020, dated 2024).

How the values were obtained:
[1] = molecular target: PERK kinase (Homo sapiens (Human), UniProt Q9NZJ5); assay: Biochemical assay for PERK (coupled pyruvate kinase/lactate dehydrogenase assay); details: 1 mM ATP, rate from 2-3 h time frame
Outline: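 Coupled pyruvate kinase/lactate dehydrogenase readout of ATP hydrolysis via NADH oxidation (A340), 10 nM PERK, 0.25 mg/mL myelin basic protein, 1 mM ATP, pH 7.5 Tris/MgCl2 buffer, 1% DMSO. Absorbance followed 6 h at 30° C; rate from the 2-3 h window, normalised to no-compound and known-inhibitor controls, IC50 fitted.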

[2] = molecular target: GCN2 kinase (Homo sapiens (Human), UniProt Q9P2K8); assay: Biochemical assay for GCN2 (TR-FRET kinase activity assay); details: 1 mM ATP, 3-hour incubation
Outline: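 TR-FRET assay with 2 nM GCN2, 130 nM GFP-eIF2α substrate, 0.2 mg/mL E. coli tRNA and 1 mM ATP; compounds (0.5% DMSO) reacted 3 h. Stopped with 20 mM EDTA plus 2 nM Tb-anti-peIF2α (pSer52), 60 min RT; 520/490 ratio converted to % inhibition, IC50 from four-parameter fit.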

[3] = tested on: MV-4-11 acute myeloid leukemia xenograft; assay: MV-4-11 xenograft efficacy model; format: in vivo, mice; details: 25 mg/kg/day orally for 14 days in combination with Leunase 1000 U/kg
Description: The MV-4-11 acute myeloid leukemia xenograft model was performed in compliance with all the laws, regulations, and guidelines of the National Institutes of Health (NIH) and with the approval of the Animal Care and Use Committee of Crown Bioscience (Taicang, China), an AAALAC accredited facility. Food and water were provided ad libitum. […] Female NOD/SCID (6-9 weeks old; Vital River Laboratories Research Models and Services (Beijing, China)) were inoculated subcutaneously right front flank region with five million cells in Dulbecco's Phosphate Buffered Saline:Matrigel (1:1), using a 27-gauge needle and syringe. When tumor burdens reached 150 mm^3 on average on day 7, mice were randomly assigned into groups such that the mean tumor burden for all groups was within 10% of the overall mean tumor burden for the study population. Groups were treated on days 7-21 as follows: vehicle control (dosed orally and IP to mimic combination group (n=10); Compound 16 dosed orally at 25 mg/kg/day (n=10); Leunase (Kyowa Kirin, Japan) dosed IP at 1000 U/kg/day (n=10); Leunase (Kyowa Kirin, Japan) dosed IP at 1000 U/kg/day (n=10) and Compound 16 dosed orally at 25 mg/kg/day (n=10). Tumor volume and body weight were measured three times per week. Tumor burden (mg) was estimated from caliper measurements by the formula: tumor burden (mg=mm^3)=(length×width^2)/2.

[4] = tested on: H929, RPMI8226, GA-10 and DoHH-2 cells; assay: Inhibition of multiple myeloma and B-cell lymphoma cell proliferation; format: cell-based; details: combination with SOC agents for multiple myeloma or B cell lymphomas
Description: H929, RPMI8226, GA-10, and DoHH-2 cells (catalog #CRL-9068) were obtained from the American Type Culture Collection (ATTC, Manassas, VA). H929 Cells were maintained in RPMI-1640 medium supplemented with 20% heat-inactivated fetal bovine serum (catalog #A3840002, ThermoFisher Scientific, Waltham, MA), 1% Penicillin/Streptomycin/L-Glutamine (catalog #10378016, ThermoFisher Scientific, Waltham, MA), and 0.05 mM 2-mercaptoethanol (catalog #21985-023, ThermoFisher Scientific, Waltham, MA). […]
For cell proliferation assay appropriate number of cells (Forty thousand cells for H929; Twenty thousand cells for RPMI8226, and GA-10; Eight thousand cells for DoHH-2) were seeded per well in 200 μL in respective medium were dispensed into a 96-well black clear bottom plate. […] Plates were read on a Synergy2 or equivalent reader (Biotek, Winooski VT) using an excitation of 540 nm and an emission of 600 nm. At the end of the incubation of DoHH-2, cell viability was determined using CellTiter-Glo® assay (Promega, Madison, WI). Luminescence was measured using EnVision MultiLabel Reader (PerkinElmer, Waltham, MA). Data was analyzed using GraphPad Prism software (GraphPad, San Diego, CA) to calculate IC50 values.

Chain of GCN2 kinase (Q9P2K8 whole entry): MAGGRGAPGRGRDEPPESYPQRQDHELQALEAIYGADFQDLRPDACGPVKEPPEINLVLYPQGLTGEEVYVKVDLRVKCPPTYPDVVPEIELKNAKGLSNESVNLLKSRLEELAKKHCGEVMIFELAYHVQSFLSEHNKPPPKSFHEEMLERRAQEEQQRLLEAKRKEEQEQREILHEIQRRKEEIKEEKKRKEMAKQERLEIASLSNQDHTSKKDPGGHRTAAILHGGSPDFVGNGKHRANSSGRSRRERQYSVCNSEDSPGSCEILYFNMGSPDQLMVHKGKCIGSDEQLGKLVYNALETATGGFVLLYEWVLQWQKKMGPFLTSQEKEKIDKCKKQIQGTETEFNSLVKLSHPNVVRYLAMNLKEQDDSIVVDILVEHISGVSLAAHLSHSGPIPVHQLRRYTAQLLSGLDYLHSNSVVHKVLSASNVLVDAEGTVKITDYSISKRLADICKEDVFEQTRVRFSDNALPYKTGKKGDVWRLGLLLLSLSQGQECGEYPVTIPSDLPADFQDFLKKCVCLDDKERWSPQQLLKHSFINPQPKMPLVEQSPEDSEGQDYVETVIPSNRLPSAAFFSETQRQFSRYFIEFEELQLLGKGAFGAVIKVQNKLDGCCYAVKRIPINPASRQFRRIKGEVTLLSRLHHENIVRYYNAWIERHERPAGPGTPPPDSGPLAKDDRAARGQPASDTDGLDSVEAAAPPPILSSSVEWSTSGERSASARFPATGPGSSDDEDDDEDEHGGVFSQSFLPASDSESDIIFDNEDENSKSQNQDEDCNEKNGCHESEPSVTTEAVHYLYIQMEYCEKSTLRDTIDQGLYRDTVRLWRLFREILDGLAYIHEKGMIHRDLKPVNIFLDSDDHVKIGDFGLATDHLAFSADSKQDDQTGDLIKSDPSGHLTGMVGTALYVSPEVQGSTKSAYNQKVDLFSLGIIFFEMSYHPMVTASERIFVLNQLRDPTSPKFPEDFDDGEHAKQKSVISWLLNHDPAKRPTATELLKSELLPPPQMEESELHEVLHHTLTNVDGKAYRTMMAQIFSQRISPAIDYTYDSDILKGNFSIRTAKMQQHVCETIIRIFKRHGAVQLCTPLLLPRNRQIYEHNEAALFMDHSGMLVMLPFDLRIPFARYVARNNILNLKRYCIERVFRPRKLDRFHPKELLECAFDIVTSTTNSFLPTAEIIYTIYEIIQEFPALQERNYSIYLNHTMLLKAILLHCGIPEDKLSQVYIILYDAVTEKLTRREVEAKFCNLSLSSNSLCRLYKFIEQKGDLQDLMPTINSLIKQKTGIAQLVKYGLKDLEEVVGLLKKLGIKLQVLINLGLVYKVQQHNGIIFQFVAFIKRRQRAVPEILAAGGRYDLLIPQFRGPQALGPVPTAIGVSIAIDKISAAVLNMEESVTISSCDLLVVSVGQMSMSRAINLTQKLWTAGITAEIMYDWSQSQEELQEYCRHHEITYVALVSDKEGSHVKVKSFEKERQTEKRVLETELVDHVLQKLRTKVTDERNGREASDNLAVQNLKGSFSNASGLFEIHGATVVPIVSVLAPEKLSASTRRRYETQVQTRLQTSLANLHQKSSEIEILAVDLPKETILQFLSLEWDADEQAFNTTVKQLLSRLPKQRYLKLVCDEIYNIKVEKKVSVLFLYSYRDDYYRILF
Chain of PERK kinase (Q9NZJ5 other isoform, or with tags, fused parts or gaps): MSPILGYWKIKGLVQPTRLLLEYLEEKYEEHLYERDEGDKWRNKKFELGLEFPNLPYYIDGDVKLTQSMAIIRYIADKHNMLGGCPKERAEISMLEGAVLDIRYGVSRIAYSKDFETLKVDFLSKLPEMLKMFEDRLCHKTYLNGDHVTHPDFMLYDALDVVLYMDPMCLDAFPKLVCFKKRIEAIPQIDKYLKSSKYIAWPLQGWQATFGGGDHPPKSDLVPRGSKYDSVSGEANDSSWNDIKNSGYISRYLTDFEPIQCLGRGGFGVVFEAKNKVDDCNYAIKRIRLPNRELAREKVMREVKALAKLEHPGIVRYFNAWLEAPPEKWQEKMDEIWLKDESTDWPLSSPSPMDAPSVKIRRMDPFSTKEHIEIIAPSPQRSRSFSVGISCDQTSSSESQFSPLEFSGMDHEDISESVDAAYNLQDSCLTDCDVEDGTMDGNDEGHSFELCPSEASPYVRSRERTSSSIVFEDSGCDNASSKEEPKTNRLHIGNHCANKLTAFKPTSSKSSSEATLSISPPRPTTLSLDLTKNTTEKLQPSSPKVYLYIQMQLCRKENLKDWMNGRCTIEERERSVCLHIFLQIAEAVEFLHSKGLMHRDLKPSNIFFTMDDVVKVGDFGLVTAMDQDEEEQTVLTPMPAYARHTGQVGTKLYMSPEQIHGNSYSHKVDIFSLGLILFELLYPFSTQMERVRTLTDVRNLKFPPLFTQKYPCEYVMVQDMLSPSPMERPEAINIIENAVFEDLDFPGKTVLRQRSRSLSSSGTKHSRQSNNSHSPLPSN

## CNc1ncc2cc(-c3cccc(NS(=O)(=O)c4cc(Cl)cnc4OC)c3F)c(NC)nc2n1 [Compound 16]
[1]
  IC50: 100 to 500 nM
[2]
  IC50: ≤ 100 nM
[3]
  effect on MV-4-11 tumor growth: tumor regression
[4]
  inhibition of cell proliferation in combination with standard of care agents: additivity or synergy
